The record followed here is patent US20080113938A1, “ACCELERATOR FOR MINERAL ABSORPTION AND USE THEREOF” (KABUSHIKI KAISHA HAYASHIBARA SEIBUTSU KAGAKU KENKYUJO, priority 2003, published 2008).

Marks after values point to notes of the source that are not given here.

Type in all cases: cell-based, Wister rats
Assay [1] has as its system reversed canal sac of colon/rectum. The assay can be described thus: Calcium absorption in reversed canal sac, colon/rectum. The method, then:
(§1) Experiment 1 confirmed that cyclic tetrasaccharide promotes mineral absorption in alimentary canal of rat concretely in intestinum ileum or its upper alimentary canal. The following experiment was carried out in order to determine a part of alimentary canal, cyclic tetrasaccharide acts on to promote mineral absorption. Twenty heads of Wister rats (nine week aged male, commercialized by Charlesriver Corporation, Kanagawa, Japan) were bred for three days with a usual solid feed for rats. Under the anesthetization with ether, alimentary canal was taken out from each rat which had been bled from a jugular vein and treated by abdominal operation. Each alimentary canal was divided into jejunum, intestinum ileum and colon/rectum and washed with physiological saline to remove the content. The resulting jejunum specimen, intestinum ileum specimen or colon/rectum specimen was cut off to prepare each midsection sized with about 10 cm in length. The resulting midsection of each specimen was reversed using a glass rod and immersed in a physiological saline babbled with gas consisting of 95% oxygen and 5% carbon dioxide. The resultant was cut into pieces sized with 5 cm in length and each piece was tied with a suture thread at both ends to prepare a reversed canal sac, and injected with about 0.5 ml of an internal sac solution containing 30 mM Tris-HCl buffer (pH7.4), 125 mM sodium chloride, 4 mM potassium chloride, 10 mM glucose and 1.25 mM calcium chloride (dihydrate) with a syringe and weighed. The resulting sac was immersed in an external sac solution (being bubbled with the gas consisting of 95% oxygen and 5% carbon dioxide) containing 50 mM, 100 mM or 200 mM of the same cyclic tetrasaccharide to Experiment 1 in the above solution containing 30 mM Tris-HCl buffer (pH7.4), 125 mM sodium chloride, 4 mM potassium chloride, 10 mM glucose and 1.25 mM calcium chloride (dihydrate). At 15 or 30 minutes after the immersion, the reversed canal sac was taken out from the solution and washed with distilled water. The internal sac solution was collected from the resulting sac and admixed with distilled water to give a final volume of 25 ml. The resulting solution was subjected to a calorimetric measurement of calcium content using “CALCIUM TEST C WAKO™” (commercialized by Wako Pure Chemicals Corporation, Osaka, Japan). As a negative control, an external sac solution without saccharides. As a positive control, an external sac solution containing 200 mM maltitol, reported to have the effect on promoting mineral absorption though intestinal canal, instead of cyclic tetrasaccharide were prepared and carried out in the same manner. Speed of calcium absorption (nmol/min·cm^2) and its relative values defining the value of negative control as 100 were calculated.

Assay [2] relates to reversed canal sac of jejunum. The assay can be described thus: Calcium absorption in reversed canal sac, jejunum. The method, then:
as §1

For assay [3], the system named is reversed canal sac of intestinum ileum. The assay can be described thus: Calcium absorption in reversed canal sac, intestinum ileum. The method, then: as §1
The mark [4] stands for this setting: 200 mM saccharide in external sac solution.

As for `OC[C@@H](O)[C@@H](O[C@H]1O[C@H](CO)[C@@H](O)[C@H](O)[C@H]1O)[C@H](O)[C@@H](O)CO` [Maltitol, maltitol, reference compound], in assay [1] (setting [4]), the “Absorption speed of calcium in alimentary canal sac, Colon/Rectum” value is reported as 22.3 * nmol/min · cm^2 and the “Relative value of calcium absorption speed (control = 100), Colon/Rectum” value was “(168)”. The “promotion of calcium absorption in colon/rectum” value in assay [1] (reversed sac) is “strongly promoted”. Also, in assay [2] (setting [4]), the “Absorption speed of calcium in alimentary canal sac, Jejunum” value is given as 27.9 * nmol/min · cm^2 and the “Relative value of calcium absorption speed (control = 100), Jejunum” value was “(131)”. In addition, the “promotion of calcium absorption in jejunum” value in assay [2] (reversed sac) is listed as “strongly promoted”. Moreover, in assay [3] (setting [4]), the “Absorption speed of calcium in alimentary canal sac, Intestinum ileum” value was 40.5 * nmol/min · cm^2 and the “Relative value of calcium absorption speed (control = 100), Intestinum ileum” value is recorded as “(150)”. The “promotion of calcium absorption in intestinum ileum” value in assay [3] (reversed sac) is on record as “strongly promoted”.
